# From patent publication EP0979243B1, “ACTIVATION OF PEPTIDES” (Anmat Technology Limited, priority 1997, dated 2006)
# Assay type: biochemical
# Method: As an example of particulates for use in drug-delivery or diagnostic assay,liposomes encapsulating Calcein (Sigma) dye were prepared by the extrusion method of Biochim. Biophys. Acta (1985) 812; 55. Specifically, Phosphotidylcholine (12mg) and cholesterol (2mg) were evaporated to form a lipid film in a round bottom flask. The film was hydrated with 2ml of 120mM Calcein in 10mM sodium phosphate/120mM Sodium chloride buffer of pH 7.4. Liposomes were then prepared by ten times extrusion through a 0.2 micron polycarbonate filter using the reported method. Any non-encapsulated dye was removed by gel filtration on a PD-10 column.
# In a typical assay a 2ml buffer containing a known concentration (depending on the activity) of a peptide prepared as in Example 1 is treated with 3µl liposomes prepared as in Example 2. The progress of dye leakage from the liposomes indicates release of the marker and is followed by recording an increase in fluorescence signal. The assay can be repeated in the presence of a binder. Where Calcein is used as the dye excitation and emission wavelengths of 490nm and 520nm were used. […]. The concentration of binder required to fully bind the peptide can be evaluated using series of binder concentration at fixed peptide concentrations or vice versa. […]
compound,measurement,setting,value
CC[C@H](C)[C@H](NC(=O)CNC(C)=O)C(=O)NCC(=O)N[C@@H](C)C(=O)N[C@H](C(=O)N[C@@H](CC(C)C)C(=O)N[C@@H](CCCNC(=N)N)C(=O)N[C@H](C(=O)N[C@@H](CC(C)C)C(=O)N[C@H](C(=O)N[C@H](C(=O)NCC(=O)N[C@@H](CCCCNC(=O)CCCC[C@@H]1SC[C@@H]2NC(=O)N[C@@H]21)C(=O)N1CCC[C@H]1C(=O)N[C@@H](C)C(=O)N[C@@H](CC(C)C)C(=O)N[C@H](C(=O)N[C@@H](CO)C(=O)N[C@@H](Cc1c[nH]c2ccccc12)C(=O)N[C@H](C(=O)N[C@@H](CCCNC(=N)N)C(=O)N[C@@H](CCCNC(=N)N)C(=O)N[C@@H](CCCNC(=N)N)C(=O)N[C@@H](CCCNC(=N)N)C(=O)N[C@@H](CCC(N)=O)C(=O)N[C@@H](CCC(N)=O)C(N)=O)[C@@H](C)CC)[C@@H](C)CC)[C@@H](C)O)[C@@H](C)O)C(C)C)C(C)C [biotin modified peptide of example 1b],stability of integrated system (single reagent) in the inactive form,"Figure 4A, under 2hrs, avidin and liposomes in 2ml buffer",very stable with little or no leakage of the contents
same,stability and activation of integrated system,"Figure 4B, under 17hrs, nitroavidin and liposomes in 2ml buffer, biotin added at point X",stable and activated specifically with ligand
